{
  "source": "patent US20260272908A1",
  "about": "(VANDERBILT UNIVERSITY, priority 2023, published 2026)",
  "key": {"[1]": {"system": "phospho-STAT3 (p-STAT3)", "assay": "Western blot for phospho-STAT3 in Meta3 and Meta4 organoids", "assay_type": "cell-based, mouse", "description": "FIG. 3C-3D show the Western blot analysis for p-STAT3 and p-ERK in Meta3 and Meta4 organoids (FIG. 3C) and ratios of p-STAT3/total STAT3 and p-ERK/total ERK (FIG. 3D). […] FIG. 3F-3G show phase-contrast images of Meta4 organoids treated with DMSO, Pyr (100 nM), STAT3-IN-1 (1 μM), Stattic (2 μM), and Cryptotanshinone (CPT) (5 μM) for 3 days (FIG. 3F), and quantitation of organoid diameters before and after treatment (FIG. 3G). FIG. 3H-3I show phase-contrast images of Meta4 organoids treated with DMSO, trametinib (Tra), STAT3-IN-1, combination of Tra and STAT3-IN-1, and Pyr, for 3 days (FIG. 3H), and quantitation of organoid diameters before and after treatment (FIG. 3I). FIG. 3J-3K show western blot for p-STAT3 and p-ERK after treatment of Tra, Pyr, and SSTC3 (FIG. 3J) and ratios of p-STAT3/t-STAT3 and p-ERK/t-ERK (FIG. 3K). […] Relative quantification of each gene expression level was normalized to GAPDH gene expression. Shading scale represents the mRNA expression values. FIG. 3M show representative mRNA of Pim-1 and Cyclin-B1 after treatment. Mean±standard deviation. […] Scale bar=500 μM.\nTotal proteins were extracted from organoids using radioimmunoprecipitation assay buffer (10 mmol/L Tris-HC, pH 7.2, 150 mmol/L NaCl, 5 mmol/L EDTA, 0.1% sodium dodecyl sulfate, 1.0% Triton X-100, 1% deoxycholate) with protease inhibitors. The protein concentration was measured The Bio-Rad Protein Assay (Bio-Rad Laboratories, Hercules, CA). 5 to 10 μg of total protein was loaded onto 12.5% or 10% sodium dodecyl sulfate/polyacrylamide gel electrophoresis (PAGE) and transferred onto polyvinylidene difluoride membranes (Millipore, Billerica, MA). […] After washes with TBS-T, chemiluminescence was detected with an Amersham Imager 680 instrument (GE Healthcare) after 1 mL of the SuperSignal West Femto Maximum Sensitivity Substrate (ThermoFisher) was applied to the membranes."}, "[2]": {"system": "Mist1-Kras mice", "assay": "Pyrvinium treatment of Mist1-Kras mice (metaplasia progression to dysplasia, gastric corpus histology and immunostaining)", "assay_type": "in vivo, mouse", "details": "pyrvinium 2 weeks, qRT-PCR"}, "[3]": {"system": "Meta4 organoids", "assay": "FACS analysis of Meta4 organoids (7-AAD/annexin V; CD133/CD166)", "assay_type": "cell-based, mouse"}},
  "data": [
    {"smiles": "Cc1cc(/C=C/c2ccc3cc(N(C)C)ccc3[n+]2C)c(C)n1-c1ccccc1", "note": "[pyrvinium]", "values": [
      {"measurement": "phosphorylation of STAT3^Y705", "setting": "[1]; Meta3", "result": "reduced phosphorylation"},
      {"measurement": "phosphorylation of STAT3^Y705", "setting": "[1]; Meta4, 3 days", "result": "significant reduction"},
      {"measurement": "expression of myeloid-derived suppressor cell (MDSC)-related markers", "setting": "[2]", "result": "tended to increase, although the changes were not significant"},
      {"measurement": "CD133^+CD166^+ DSCs (FACS)", "setting": "[3]; pyrvinium-treated", "result": "significant decrease"},
      {"measurement": "7-AAD and Annexin V expression", "setting": "[3]; pyrvinium-treated cells", "result": "increase"}
    ]}
  ]
}
